The results in this text go back to PubChem BioAssay AID602160 (Broad Institute, 2011).

In general, AC50 refers to the concentration at which the activity in the assay is half-maximal.

Molecules are shown by their SMILES. Inconclusive results are not listed.

The target in the experiment is Plasmodium falciparum Hsp90 (expressed in yeast GR reporter strain). In words: decrease of GR reporter signal in PfHsp90 yeast, dose response, S. cerevisiae, beta-gal luminescence, dry powder samples (AID 602160).
With `O=S(=O)(NC1CCCCCC1)c1ccc(Br)s1`, the concentration at half-maximal activity (AC50) is 10.7 µM.

In the case of `O=C(CSCC(=O)N1CCCCC1)Nc1nc(-c2ccc(Cl)s2)cs1`, the concentration at half-maximal activity (AC50) is 19.6 µM.

Turning to `O=S(=O)(/C=C/c1ccccc1)NC1CCCCCCC1`, the AC50 was 15.1 µM.

Turning to `Cc1ccc(OCc2n[nH]c(=S)n2C2CCCCC2)cc1`, the AC50 was 20.2 µM.
